Activity calls are given as the source filed them. The calls are words filed in the database; no cut-off is given here.
Tests used:
Rattus norvegicus [1] = experiment: Antinociceptive activity in Sprague-Dawley rat model of chronic constriction injury-induced neuropathic pain assessed as reduction in mechanical hyperalgesia 100 mg/kg, po by Von Frey test relative to control; type: functional; design: scale not given: the % may be the effect or the level left
Rattus norvegicus [2] = experiment: Antinociceptive activity in Sprague-Dawley rat model of chronic constriction injury-induced neuropathic pain assessed as reduction in paw withdrawal latency at 100 mg/kg, po by Von Frey test; type: functional, organism-based
Rattus norvegicus [3] = experiment: Antinociceptive activity in Sprague-Dawley rat model of chronic constriction injury-induced neuropathic pain assessed as reduction in thermal hyperalgesia 100 mg/kg, po by Von Frey test relative to control; type: functional; design: scale not given: the % may be the effect or the level left
[4] = Toxicity in Sprague-Dawley rat assessed as dizziness at 100 mg/kg, po; type: organism-based; details: in vivo
Rattus norvegicus [5] = experiment: Reversal of chronic constriction injury-induced cold allodynia in Sprague-Dawley rat model of neuropathic pain at 100 mg/kg, po measured up to 180 mins relative to control; type: functional; details: time min <=180
[6] = Induction of motor coordination impairment in Sprague-Dawley rat at 100 mg/kg, po measured up to 180 mins by rotarod test; type: organism-based; details: in vivo, 3 h
[7] = Toxicity in Sprague-Dawley rat assessed as unsteadiness at 100 mg/kg, po; type: organism-based; details: in vivo
Rattus norvegicus [8] = experiment: Reversal of chronic constriction injury-induced mechanical allodynia in Sprague-Dawley rat model of neuropathic pain at 100 mg/kg, sc measured up to 180 mins relative to control; type: functional; details: time min <=180
[9] = Toxicity in Sprague-Dawley rat assessed as drowsiness at 100 mg/kg, po; type: organism-based; details: in vivo
[10] = Permeability of the compound at pH 5.5 incubated for 4 hrs by PAMPA-based UV spectrophotometry; type: ADME; details: read-out: permeability
[11] = Permeability of the compound at pH 7.4 incubated for 4 hrs by PAMPA-based UV spectrophotometry; type: ADME; details: for Papp at 4 h: PAMPA, pH 7.4, read-out: permeability
[12] = Permeability of the compound across basolateral to apical membrane in human Caco-2 cells incubated for 2 hrs by LC-MS/MS analysis; type: ADME, cell-based; details: Caco-2, read-out: permeability
[13] = Metabolic stability in human liver microsomes assessed as parent compound remaining at 0.5 uM incubated for 10 mins in presence of NADPH by LC-MS/MS analysis; type: ADME, Microsome; details: read-out: Stability
[14] = Metabolic stability in mouse liver microsomes assessed as parent compound remaining at 0.5 uM incubated for 10 mins in presence of NADPH by LC-MS/MS analysis; type: ADME, Microsome; details: read-out: Stability
[15] = molecular target: T1, AP2-associated protein kinase 1 (Homo sapiens, UniProt Q2M2I8); experiment: Inhibition of recombinant GST-Xa-tagged human AAK1 (30 to 330 residues) using 5-FAM-labelled Alla-KEEQSQITSQVTGQIGWR-NH2 peptide as substrate incubated for 3 hrs in presence of ATP by electrophoretic analysis
[16] = Metabolic stability in rat liver microsomes assessed as parent compound remaining at 0.5 uM incubated for 10 mins in presence of NADPH by LC-MS/MS analysis; type: ADME, Microsome; details: read-out: Stability
[17] = Ratio of drug concentration in brain to plasma in C57BL6 mouse at […], sc; type: ADME; details: read-out: BPR
[18] = Drug concentration in C57BL6 mouse brain at 30 mg/kg, sc measured after 2 hrs by LC-MS/MS analysis; type: ADME, organism-based; details: read-out: Ct
[19] = Drug concentration in C57BL6 mouse plasma at 30 mg/kg, sc measured after 2 hrs by LC-MS/MS analysis; type: ADME, organism-based
[20] = Efflux ratio of permeability across basolateral to apical membrane over apical to basolateral membrane in human Caco-2 cells
[21] = Permeability of the compound across apical to basolateral membrane in human Caco-2 cells incubated for 2 hrs by LC-MS/MS analysis
[22] = molecular target: T1, AP2-associated protein kinase 1; experiment: Inhibition of human AAK1 expressed in HEK293 cells assessed as suppression of AP2 phosphorylation measured after 3 hrs by Western blot analysis; type: cell-based
[23] = Protein binding in rat plasma assessed as unbound fraction at 10 uM measured after 5 hrs by equilibrium dialysis method
[24] = Protein binding in human plasma assessed as unbound fraction at 10 uM measured after 5 hrs by equilibrium dialysis method
[25] = Protein binding in mouse plasma assessed as unbound fraction at 10 uM measured after 5 hrs by equilibrium dialysis method
[26] = molecular target: T1, AP2-associated protein kinase 1; experiment: Inhibition of AAK1 (unknown origin)

T1 sequence (Q2M2I8 whole entry, the tested form may be a part): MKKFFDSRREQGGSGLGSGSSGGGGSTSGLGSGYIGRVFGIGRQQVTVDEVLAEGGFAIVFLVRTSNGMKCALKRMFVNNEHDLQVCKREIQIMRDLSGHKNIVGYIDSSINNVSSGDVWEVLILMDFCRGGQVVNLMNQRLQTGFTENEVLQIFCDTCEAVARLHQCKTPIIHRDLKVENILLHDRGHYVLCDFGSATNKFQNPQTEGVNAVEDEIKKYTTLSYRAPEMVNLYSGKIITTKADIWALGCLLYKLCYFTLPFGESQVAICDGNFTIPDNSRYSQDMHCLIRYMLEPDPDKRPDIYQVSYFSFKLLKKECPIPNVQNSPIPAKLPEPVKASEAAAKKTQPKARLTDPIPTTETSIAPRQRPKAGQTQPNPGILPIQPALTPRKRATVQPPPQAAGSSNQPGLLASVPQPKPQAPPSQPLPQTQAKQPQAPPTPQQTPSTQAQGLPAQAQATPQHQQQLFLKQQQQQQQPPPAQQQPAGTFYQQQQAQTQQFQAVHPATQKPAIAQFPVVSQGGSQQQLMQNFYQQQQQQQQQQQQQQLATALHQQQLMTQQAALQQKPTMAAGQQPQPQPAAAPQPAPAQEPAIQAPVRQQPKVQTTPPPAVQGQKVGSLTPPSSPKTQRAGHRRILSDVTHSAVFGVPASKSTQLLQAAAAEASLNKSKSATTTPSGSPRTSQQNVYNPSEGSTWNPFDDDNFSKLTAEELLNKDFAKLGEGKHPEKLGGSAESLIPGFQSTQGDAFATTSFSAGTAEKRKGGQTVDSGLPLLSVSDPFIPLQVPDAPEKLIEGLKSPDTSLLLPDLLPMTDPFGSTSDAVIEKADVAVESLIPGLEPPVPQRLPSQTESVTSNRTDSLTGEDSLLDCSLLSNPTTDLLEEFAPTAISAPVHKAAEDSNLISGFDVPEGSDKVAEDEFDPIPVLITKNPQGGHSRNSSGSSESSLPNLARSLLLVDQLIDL

SMILES	remaining at 10 min, 0.5 µM [13]	remaining at 10 min, 0.5 µM [14]	IC50 [15]	remaining at 10 min, 0.5 µM [16]	other results
NCC1(CC(=O)O)CCCCC1 [GABAPENTIN]	–	–	–	–	Activity (Rattus norvegicus [1]): 32%; Activity (Rattus norvegicus [2]): Active; Activity (Rattus norvegicus [3]): 89%; Activity [4]: Toxic; Activity (Rattus norvegicus [5]): 54%; Activity [6]: Toxic; Activity [7]: Toxic; Activity (Rattus norvegicus [8]): 34%; Activity [9]: Toxic
COCCc1ccc(OCC(O)CNC(C)C)cc1 (stereo not given) [METOPROLOL]	–	–	–	–	Papp at 4 h [10]: 10.2 ×10⁻⁶ cm/s; permeability ([11]; pampa, pH 7.4, 4 h): 83.5 10^-6 cm/s
C[C@H]1O[C@@H](O[C@H]2[C@@H](O)C[C@H](O[C@H]3[C@@H](O)C[C@H](O[C@H]4CC[C@@]5(C)[C@H](CC[C@@H]6[C@@H]5C[C@@H](O)[C@]5(C)[C@@H](C7=CC(=O)OC7)CC[C@]65O)C4)O[C@@H]3C)O[C@@H]2C)C[C@H](O)[C@@H]1O [DIGOXIN]	–	–	–	–	Papp B→A at 2 h [12]: 10 ×10⁻⁶ cm/s
COc1cc(NC(=O)[C@H](N)c2ccccc2)ccc1-c1cnco1	63%	75%	42 nM	60%	–
COc1cc(NC(=O)[C@H](N)CC(C)C)ccc1-c1cn[nH]c1	85%	34%	15 nM	74%	Kp [17]: 0.21; concentration at 2 h [18]: 5.7 µM; concentration at 2 h [19]: 29.9 µM; efflux ratio [20]: 3.3; Papp B→A at 2 h [12]: 14.9 ×10⁻⁶ cm/s; Papp A→B at 2 h [21]: 4 ×10⁻⁶ cm/s; IC50 [22]: 190 nM; fraction unbound at 5 h, 10 µM [23]: 0.1; fraction unbound at 5 h, 10 µM [24]: 0.18; fraction unbound at 5 h, 10 µM [25]: 0.2
CC(C)C[C@@H](N)C(=O)Nc1ccc(-c2ccncc2)cc1	80%	66%	15 nM	75%	–
CCCC[C@H](N)C(=O)Nc1ccc(-c2cnco2)c(OC)c1	65%	43%	260 nM	54%	–
COc1cc(NC(=O)[C@H](N)CC(C)C)ccc1-c1cn[nH]n1	84%	44%	49 nM	87%	–
COc1cc(NC(=O)[C@H](N)CC(C)C)ccc1-n1cncn1	79%	87%	920 nM	79%	–
CN[C@H](CC(C)C)C(=O)Nc1ccc(-c2cnco2)c(OC)c1	53%	14%	46 nM	39%	–
CCC[C@H](N)C(=O)Nc1ccc(-c2cnco2)c(OC)c1	70%	46%	350 nM	31%	–
COc1cc(NC(=O)[C@H](N)CC(C)C)ccc1-c1ccnnc1	99%	70%	110 nM	74%	–
CNc1cc(-c2ccc(NC(=O)[C@H](N)CC(C)C)cc2OC)ccn1	69%	24%	450 nM	22%	–
CCOc1cc(NC(=O)[C@H](N)CC(C)C)ccc1-c1cnco1	64%	54%	13 nM	60%	–
Cc1nccc2c1c(=O)n(C)c1cc(OC[C@@H](N)CC(C)C)c(C#N)cc21	–	–	–	–	IC50 [26]: 0.7 nM
COc1cc(NC(=O)[C@H](N)C2CCCCC2)ccc1-c1cnco1	69%	67%	18 nM	66%	–
COc1cc(NC(=O)CC2CCCC2)ccc1-c1cnco1	64%	46%	80 nM	58%	–

SMILES	remaining at 10 min, 0.5 µM [13]	remaining at 10 min, 0.5 µM [14]	IC50 [15]	remaining at 10 min, 0.5 µM [16]	other results
COc1cc(NC(=O)[C@@H]2NCCC[C@@H]2C(C)C)ccc1-c1cnco1	60%	2%	10 nM	42%	Papp at 4 h [10]: 47.1 ×10⁻⁶ cm/s; Papp B→A at 2 h [12]: 11.9 ×10⁻⁶ cm/s; Papp A→B at 2 h [21]: 16.7 ×10⁻⁶ cm/s; IC50 [22]: 105 nM; fraction unbound at 5 h, 10 µM [23]: 0.059; Papp at 4 h [11]: 43.5 ×10⁻⁶ cm/s; fraction unbound at 5 h, 10 µM [24]: 0.19; fraction unbound at 5 h, 10 µM [25]: 0.028
COc1cc(NC(=O)[C@H]2NCCC[C@H]2C(C)C)ccc1-c1cnco1	19%	1%	360 nM	24%	–
COc1cc(NC(=O)CCC(C)C)ccc1-c1cnco1	61%	33%	80 nM	46%	–
CC[C@@H](C)[C@@H](N)C(=O)Nc1ccc(-c2cnco2)c(OC)c1	86%	81%	31 nM	62%	–
CC(C)C1CCCNC1C(=O)Nc1ccc(-c2ccncc2)cc1 (racemic)	77%	76%	17 nM	60%	–
CCc1cc(NC(=O)[C@H](N)CC(C)C)ccc1-c1cnco1	88%	45%	100 nM	70%	–
COc1cc(NC(=O)[C@H](N)CC(C)C)ccc1-c1ccnc(Cl)c1	73%	74%	240 nM	89%	–
COc1cc(NC(=O)[C@H](N)CC(C)C)ccc1-c1ccncc1	91%	65%	85 nM	77%	–
COc1cc(NC(=O)[C@@H](N)CC(C)C)ccc1-c1cnco1	71%	53%	19 nM	40%	–
COc1cc(NC(=O)[C@H](N)Cc2ccccc2)ccc1-c1cnco1	68%	56%	630 nM	49%	–
COc1cc(NC(=O)[C@H](N)CC(C)C)ccc1-c1ccncn1	71%	40%	290 nM	52%	–
COc1cc(NC(=O)[C@H](N)CC(C)C)ccc1-c1cnco1	89%	64%	12 nM	75%	Kp [17]: 1.17; concentration at 2 h [18]: 6.8 µM; concentration at 2 h [19]: 7.3 µM; Papp at 4 h [10]: 56.9 ×10⁻⁶ cm/s; Papp B→A at 2 h [12]: 15.1 ×10⁻⁶ cm/s; Papp A→B at 2 h [21]: 13.7 ×10⁻⁶ cm/s; IC50 [22]: 60 nM; fraction unbound at 5 h, 10 µM [23]: 0.023; Papp at 4 h [11]: 58.4 ×10⁻⁶ cm/s; fraction unbound at 5 h, 10 µM [24]: 0.063; fraction unbound at 5 h, 10 µM [25]: 0.086
COc1cc(NC(=O)C[C@@H](N)C(C)C)ccc1-c1cnco1	82%	7%	127 nM	4%	–
COc1cc(NC(=O)[C@H](N)C2CCCC2)ccc1-c1cnco1	84%	63%	13 nM	73%	–
CC(C(=O)O)c1cccc(C(=O)c2ccccc2)c1 (stereo not given) [KETOPROFEN]	–	–	–	–	Papp at 4 h [10]: 34.2 ×10⁻⁶ cm/s; Papp at 4 h [11]: 1.1 ×10⁻⁶ cm/s
COc1cc(NC(=O)[C@H](N)CC(C)C)ccc1-c1ccnc(N)c1	96%	73%	150 nM	89%	–
Cc1cc(NC(=O)[C@H](N)CC(C)C)ccc1-c1cnco1	74%	43%	48 nM	74%	–
